Results: patent US20240377291A1, “AZETIDINE SUBSTITUTED ROSAMINES USEFUL FOR STAINING MITOCHONDRIA” (TOCRIS COOKSON LIMITED, priority 2021, published 2024)

Tests used:
Format in all cases: cell-based
[1] = tested on: mitochondria in COS-7 cells; test: Mitochondrial membrane de-polarisation experiments (CCCP) in COS-7 cells; conditions: for mitochondrial signal after CCCP Chase (depolarization after staining) / mitochondrial accumulation after depolarizing the membrane potential with CCCP before staining: 100 nM dye 30 minutes; for mitochondrial signal after CCCP Chase (depolarization after staining): then 20 μM CCCP 30 minutes; for mitochondrial accumulation after depolarizing the membrane potential with CCCP before staining: 20 μM CCCP pre-treatment 30 minutes
Procedure: COS-7 cells were pre-treated with media or 20 μM CCCP for 30 minutes followed by a staining step with 100 nM COMPOUND 5 or 100 nM Comparator (MitoTracker Deep Red FM) for 30 minutes in the presence/absence of 20 μM CCCP. After the staining, excessive dye was washed out with media, with or without 20 μM CCCP for 30 minutes.

[2] = tested on: mitochondria in HeLa cells; test: Staining of HeLa cells at a single concentration followed by fixation; conditions: 100 nM probe 40 minutes, then 4% PFA 10 minutes
Procedure: In FIG. 5 (scale bar=10 μm), images are shown after HeLa cells were stained with 100 nM probe for 40 minutes, followed by fixation with 4% PFA for 10 minutes. Laser power and gain have been optimized for each individual probe in this figure.

[3] = tested on: mitochondria in HeLa cells; test: Co-staining of COMPOUND 5 with DRP1 antibody NBP2-23489 on fixed, permeabilized HeLa cells; conditions: 200 nM, 15 minutes, room temperature
Procedure: NBP2-23489 was incubated on fixed, permeabilized HeLa cells at 8 μg/mL for 2 hours at room temperature. Cells were then incubated with an NL557 secondary antibody (R&D Systems; Catalog #NL007) for 1 hour at room temperature protected from light. Lastly, cells were incubated with COMPOUND 5 at 200 nM for 15 minutes at room temperature protected from light. Cells were cover-slipped with a DAPI-containing mounting media and imaged. Antibody staining was pseudo-coloured green, and mitochondrial marker staining was pseudo-coloured red.

[4] = tested on: mitochondria in COS-7 cells; test: Staining of COS-7 cells at varying concentrations followed by PFA fixation, spinning disk confocal imaging; conditions: for toxicity at 200 nM: 30 minutes; for mitochondrial staining at low concentrations: then 4% PFA fixation; for effect of high concentration on mitochondria (fragmentation and peri-nuclear clustering suggesting toxic effects): above 200 nM
Procedure: Both COMPOUND 5 and the Comparator show some toxicity at 200 nM. COMPOUND 5 gives nice staining at 25-100 nM.
In FIG. 4 (scale bar=10 μm), images are shown after COS-7 cells were stained for 30 minutes with indicated concentrations followed by immediate fixation with 4% PFA for 20 minutes at 37° C. Images were acquired using a spinning disk confocal microscope with identical exposure time and laser power and were processed with identical settings to allow a direct comparison.

[5] = tested on: mitochondria in HeLa cells; test: Post-fixation staining of HeLa cells, intensity profiles compared with a Comparator added before fixation; conditions: HeLa cells fixed with 4% PFA 20 min; COMPOUND 5 75 nM added after fixation
Procedure: COMPOUND 5 and the Comparator have distinct absorption and emission maxima. Intensity profiles (lower panel) taken across a set frame are shown for both COMPOUND 5 and Comparator.
Live HeLa cells were stained with a Comparator (250 nM, 45 min) and were then fixed (4% PFA, 20 min). After fixation, COMPOUND 5 (75 nM) was added and the cells were imaged. COMPOUND 5 and Comparator have distinct absorption and emission profiles and spill over between channels was not observed. Intensity profiles for both mitochondrial stains were taken across a set frame (lower panel) and compared.

[6] = tested on: mitochondria in HeLa cells; test: Co-localization with TOM20 antibody in fixed HeLa cells (probe added before fixation)
Source text: In each experiment, an antibody for the mitochondrial marker TOM20 has also been added. Co-localization of TOM20 and mitochondrial probes is directly compared in the merged data.

## C[Si]1(C)C2=CC(=[N+]3CCC3)C=CC2=C(c2ccccc2CCl)c2ccc(N3CCC3)cc21 [COMPOUND 5, 1-(7-(azetidin-1-yl)-10-(2-(chloromethyl)phenyl)-5,5-dimethyldibenzo[b,e]silin-3(5H)-ylidene)azetidin-1-ium chloride]
[1]
  mitochondrial signal after CCCP Chase (depolarization after staining): strong mitochondrial signal
  mitochondrial accumulation after depolarizing the membrane potential with CCCP before staining: reduces the mitochondrial accumulation
[1]; inferred from CCCP chase
  speed of mitochondrial staining relative to Comparator: more rapidly than the Comparator
[2]
  staining of mitochondria following fixation compared to a Comparator: retains clearer staining of mitochondria
[3]
  mitochondrial localization (overlap with antibody staining): localizes specifically to the mitochondria
[4]; COS-7 cells
  toxicity at 200 nM: some toxicity
  effect of high concentration on mitochondria (fragmentation and peri-nuclear clustering suggesting toxic effects): mitochondrial alterations
  staining of non-mitochondrial structures (ER, nuclear envelope) at high concentrations: stained additionally other cellular structures
[4]; COS-7 cells, 25-100 nM, 30 min
  toxicity at low concentrations: no obvious toxicity
  mitochondrial staining at low concentrations: good mitochondrial signal with little background
[4]; fixed COS-7 cells, particularly at 25 nM and 50 nM
  brightness compared to the Comparator: significantly improved brightness
[5]
  staining profile when added after fixation, compared with Comparator added before fixation: very high similarity in staining profile

## COC1CN(c2ccc3c(-c4ccccc4CCl)c4ccc(=[N+]5CC(OC)C5)cc-4oc3c2)C1 (centres unmarked) [COMPOUND 9, 1-(9-(2-(chloromethyl)phenyl)-6-(3-methoxyazetidin-1-yl)-3H-xanthen-3-ylidene)-3-methoxyazetidin-1-ium chloride]
[6]
  co-localization with mitochondrial marker TOM20 after fixation: co-localize with the mitochondrial marker TOM20

## ClCc1ccccc1-c1c2ccc(=[N+]3CCC3)cc-2oc2cc(N3CCC3)ccc12 [COMPOUND 8, 1-(6-(azetidin-1-yl)-9-(2-(chloromethyl)phenyl)-3H-xanthen-3-ylidene)azetidin-1-ium chloride]
[6]
  co-localization with mitochondrial marker TOM20 after fixation: co-localize with the mitochondrial marker TOM20

## C[N+]1=C(/C=C/C=C/C=C2\N(Cc3ccc(CCl)cc3)c3ccccc3C2(C)C)C(C)(C)c2ccccc21.[Cl-] [Comparator, MitoTracker Deep Red FM, reference compound]
[1]
  mitochondrial signal after CCCP Chase (depolarization after staining): reversible
  mitochondrial accumulation after depolarizing the membrane potential with CCCP before staining: reduces the mitochondrial accumulation
[4]; COS-7 cells
  toxicity at 200 nM: some toxicity
  effect of high concentration on mitochondria (fragmentation and peri-nuclear clustering suggesting toxic effects): mitochondrial alterations
  staining of non-mitochondrial structures (ER, nuclear envelope) at high concentrations: stained additionally other cellular structures
[4]; COS-7 cells, 25-100 nM, 30 min
  mitochondrial staining at low concentrations: decreased at low concentration
